Consider nine compounds from patent US20240158348A1, “HERBICIDAL CYCLIC AMIDES N-SUBSTITUTED WITH A HALOALKYLSULFONYLANILIDE GROUP” (FMC Corporation, priority 2021, published 2024).

Each structure is given as a SMILES string.

Data set [1] deals with kochia (Bassia scoparia). The experiment in a line: Test A preemergence, kochia. In kind it is in vivo. The settings on record: pre-emergence, 240 h, 0 to 100 scale, 10 days, read-out: Plant response rating, Kochia; for pest or weed control at 31 g/ha: 31 g ai/ha; for pest or weed control at 125 g/ha: 125 g ai/ha. The source says:
(§1) Seeds of plant species selected from barnyardgrass (Echinochloa crus-galli), blackgrass (Alopecurus myosuroides), corn (Zea mays), foxtail, giant (giant foxtail, Setaria faberi), goosegrass (Eleusine indica), kochia (Bassia scoparia), oat, wild (wild oat, Avena fatua), pigweed, palmer (palmer amaranth, Amaranthus palmeri), pigweed, redroot (redroot pigweed, Amaranthus retroflexus), ragweed (common ragweed, Ambrosia artemisiifolia), ryegrass, Italian (Italian ryegrass, Lolium multiflorum), soybean (Glycine max), and wheat (Triticum aestivum) were planted into a blend of loam soil and sand and treated preemergence with a directed soil spray using test chemicals formulated in a non-phytotoxic solvent mixture which included a surfactant.
(§2) At the same time, plants selected from these crop and weed species and also galium (catchweed bedstraw, Galium aparine) and horseweed (Erigeron canadensis) were planted in pots containing the same blend of loam soil and sand and treated with postemergence applications of test chemicals formulated in the same manner. Plants ranged in height from 2 to 10 cm and were in the one- to two-leaf stage for the postemergence treatment. Treated plants and untreated controls were maintained in a greenhouse for 10 days, after which time all treated plants were compared to untreated controls and visually evaluated for injury. Plant response ratings, summarized in Table A, are based on a 0 to 100 scale where 0 is no effect and 100 is complete control. A dash (-) response means no test result.

For data set [2], the system named is ryegrass, Italian (Italian ryegrass, Lolium multiflorum). The experiment in a line: Test A preemergence, Italian ryegrass. The format is in vivo. The settings on record: pre-emergence, 240 h, 0 to 100 scale, 10 days, read-out: Plant response rating, Ryegrass, Italian; for pest or weed control at 31 g/ha: 31 g ai/ha; for pest or weed control at 125 g/ha: 125 g ai/ha.
Text: as §1, §2

Data set [3] has as its system blackgrass (Alopecurus myosuroides). Briefly: Test A postemergence, blackgrass. In kind it is in vivo. To be noted: 0 to 100 scale, 10 days.
Text: as §1, §2

For a further data set, the system named is corn (Zea mays). Briefly: Test A postemergence, corn. To be noted: post-emergence, 240 h, 0 to 100 scale, 10 days; for Corn plant response rating (crop injury, 0 = no effect, 100 = complete kill) at 31 g/ha: 31 g ai/ha; for Corn plant response rating (crop injury, 0 = no effect, 100 = complete kill) at 125 g/ha: 125 g ai/ha. The format is in vivo.
Text: as §1, §2

Data set [4] relates to kochia (Bassia scoparia). The experiment in a line: Test A postemergence, kochia. To be noted: post-emergence, 240 h, 0 to 100 scale, 10 days, read-out: Plant response rating, Kochia; for pest or weed control at 31 g/ha: 31 g ai/ha; for pest or weed control at 125 g/ha: 125 g ai/ha. In kind it is in vivo.
Text: as §1, §2

Data set [5] concerns ryegrass, Italian (Italian ryegrass, Lolium multiflorum). The experiment in a line: Test A postemergence, Italian ryegrass. In kind it is in vivo. The settings on record: post-emergence, 240 h, 0 to 100 scale, 10 days, read-out: Plant response rating, Ryegrass, Italian; for pest or weed control at 31 g/ha: 31 g ai/ha; for pest or weed control at 125 g/ha: 125 g ai/ha.
Text: as §1, §2

Data set [6] deals with ducksalad (Heteranthera limosa). The experiment in a line: Test B flooded paddy test, ducksalad. In kind it is in vivo. The settings on record: 250 g ai/ha, Flood, scale of 0 to 100 where 0 is no effect and 100 is complete control, visually evaluated after 10 to 14 days, read-out: Plant response rating, Ducksalad. As to the method:
Plant species in the flooded paddy test selected from barnyardgrass (Echinochloa crusgalli), ducksalad (Heteranthera limosa), rice (Oryza sativa), and sedge, umbrella (small-flower umbrella sedge, Cyperus difformis) were grown to the 2-leaf stage for testing. At time of treatment, test pots were flooded to 3 cm above the soil surface, treated by application of test compounds directly to the paddy water, and then maintained at that water depth for the duration of the test. Treated plants and controls were maintained in a greenhouse for 10 to 14 days, after which time all species were compared to controls and visually evaluated. Plant response ratings, summarized in Table B, are based on a scale of 0 to 100 where 0 is no effect and 100 is complete control. A dash (-) response means no test result.

The subject of data set [7] is blackgrass (Alopecurus myosuroides). Briefly: Test A preemergence, blackgrass. In kind it is in vivo. The settings on record: 0 to 100 scale, 10 days.
Text: as §1, §2

Data set [8] concerns goosegrass (Eleusine indica). Briefly: Test A preemergence, goosegrass. The settings on record: 0 to 100 scale, 10 days. The format is in vivo.
Text: as §1, §2

In another data set the test system is soybean (Glycine max). Briefly: Test A postemergence, soybean. In kind it is in vivo. To be noted: 0 to 100 scale, 10 days.
Text: as §1, §2

By melting point is commonly meant the temperature, or range, at which the solid turns liquid.

On to `C#CCOC1CCN(c2cc(NS(=O)(=O)C(F)(F)F)c(C)cc2C)C1=O` (stereo not shown) [Compound 1, N-[2,4-dimethyl-5-[2-oxo-3-(2-propyn-1-yloxy)-1-pyrrolidinyl]phenyl]-1,1,1-trifluoromethanesulfonamide], for which the melting point lay in the range of 164 to 167 °C. In addition, in the data set on kochia (Bassia scoparia) [1], the pest or weed control at 31 g/ha worked out at 70% and the pest or weed control at 125 g/ha is 100%. Also, in data set [2], the pest or weed control at 31 g/ha was 100% and the pest or weed control at 125 g/ha worked out at 100%. Further, in data set [3] (31 g ai/ha), the “Plant response rating, Blackgrass” value came out at 10. The “Plant response rating, Blackgrass” value in data set [3] (125 g ai/ha) is on record as 50. In the data set on corn (Zea mays), this compound returned a Corn plant response rating (crop injury, 0 = no effect, 100 = complete kill) at 31 g/ha of 50% and a Corn plant response rating (crop injury, 0 = no effect, 100 = complete kill) at 125 g/ha of 90%. For the same compound, in the data set on kochia (Bassia scoparia) [4], the pest or weed control at 31 g/ha came out at 30% and the pest or weed control at 125 g/ha came to 80%. Moreover, in [5], the pest or weed control at 31 g/ha was determined as 70% and the pest or weed control at 125 g/ha came to 70%. Besides, the pest or weed control at 250 g/ha in [6] is 80%.

With `Cc1cc(C)c(N(COC(=O)C(C)(C)C)S(=O)(=O)C(F)(F)F)cc1N1CCC(OC2CCCC2)C1=O` (stereo not shown) [Compound 5, [[5-[3-(cyclopentyloxy)-2-oxo-1-pyrrolidinyl]-2,4-dimethylphenyl][(trifluoromethyl)sulfonyl]amino]methyl 2,2-dimethylpropanoate], the “Plant response rating, Blackgrass” value in data set [7] (31 g ai/ha) came out at 0; in data set [7] (125 g ai/ha), 40; in [3] (31 g ai/ha) it was 0; in data set [3] (125 g ai/ha), 0. In addition, the “Plant response rating, Goosegrass” value is given as 10 in data set [8] (31 g ai/ha) and 90 in [8] (125 g ai/ha). Moreover, the pest or weed control at 31 g/ha was found to be 0% in the data set with kochia (Bassia scoparia) [1], 20% in [2], 20% in the data set with kochia (Bassia scoparia) [4] and 20% in [5]. The pest or weed control at 125 g/ha with kochia (Bassia scoparia) [1] worked out at 60%; in [2], 90%; with kochia (Bassia scoparia) [4] it was 70%; in data set [5], 40%. The Corn plant response rating (crop injury, 0 = no effect, 100 = complete kill) at 31 g/ha in the data set on corn (Zea mays) turned out to be 0%. This compound had a Corn plant response rating (crop injury, 0 = no effect, 100 = complete kill) at 125 g/ha in the data set with corn (Zea mays) of 80%. The “Plant response rating, Soybean” value stood at 60 in the data set on soybean (Glycine max) (31 g ai/ha) and 70 in the data set with soybean (Glycine max) (125 g ai/ha). For the same compound, the pest or weed control at 250 g/ha in data set [6] was found to be 95%.

Regarding `Cc1cc(C)c(N2CCC(OC3CCCC3)C2=O)cc1NS(=O)(=O)C(F)(F)F` (stereo not shown) [Compound 6, N-[5-[3-(cyclopentyloxy)-2-oxo-1-pyrrolidinyl]-2,4-dimethylphenyl]-1,1,1-trifluoromethanesulfonamide], the “Plant response rating, Blackgrass” value in [7] (31 g ai/ha) was 50; in data set [7] (125 g ai/ha), 90; in data set [3] (31 g ai/ha), 0; in data set [3] (125 g ai/ha) it was 40. The “Plant response rating, Goosegrass” value turned out to be 90 in [8] (31 g ai/ha) and 100 in data set [8] (125 g ai/ha). In addition, the pest or weed control at 31 g/ha in the data set with kochia (Bassia scoparia) [1] amounted to 30%; in data set [2] it was 80%; in the data set with kochia (Bassia scoparia) [4] it was 20%; in data set [5], 0%. For the same compound, the pest or weed control at 125 g/ha is 90% with kochia (Bassia scoparia) [1], 90% in [2], 80% in the data set with kochia (Bassia scoparia) [4] and 50% in [5]. For the same compound, the Corn plant response rating (crop injury, 0 = no effect, 100 = complete kill) at 31 g/ha with corn (Zea mays) came out at 0%. Besides, the Corn plant response rating (crop injury, 0 = no effect, 100 = complete kill) at 125 g/ha in the data set on corn (Zea mays) turned out to be 90%. Further, the “Plant response rating, Soybean” value in the data set on soybean (Glycine max) (31 g ai/ha) and in the data set with soybean (Glycine max) (125 g ai/ha) was 70 each time. In data set [6], the pest or weed control at 250 g/ha is 85%.

`Cc1cc(C)c(N(COC(=O)C(C)(C)C)S(=O)(=O)C(F)(F)F)cc1N1CCC(OC2CC2)C1=O` (stereo not shown) [Compound 7, [[5-[3-(cyclopropyloxy)-2-oxo-1-pyrrolidinyl]-2,4-dimethylphenyl][(trifluoromethyl)sulfonyl]amino]methyl 2,2-dimethylpropanoate]: the “Plant response rating, Blackgrass” value in data set [7] (31 g ai/ha) amounted to 30; in [7] (125 g ai/ha), 80; in data set [3] (31 g ai/ha), 20; in [3] (125 g ai/ha) it was 50. Besides, the “Plant response rating, Goosegrass” value in data set [8] (31 g ai/ha) worked out at 80; in data set [8] (125 g ai/ha), 100. The pest or weed control at 31 g/ha in the data set with kochia (Bassia scoparia) [1] is 60%; in data set [2], 100%; with kochia (Bassia scoparia) [4], 70%; in data set [5], 50%. Moreover, the pest or weed control at 125 g/ha in the data set on kochia (Bassia scoparia) [1] was determined as 100%; in data set [2], 100%; in the data set on kochia (Bassia scoparia) [4], 80%; in [5] it was 90%. Also, the Corn plant response rating (crop injury, 0 = no effect, 100 = complete kill) at 31 g/ha with corn (Zea mays) came to 90%. This compound registered a Corn plant response rating (crop injury, 0 = no effect, 100 = complete kill) at 125 g/ha in the data set on corn (Zea mays) of 90%. Moreover, the “Plant response rating, Soybean” value in the data set with soybean (Glycine max) (31 g ai/ha) and in the data set on soybean (Glycine max) (125 g ai/ha) was 90 in each case. Moreover, the pest or weed control at 250 g/ha in data set [6] came out at 95%.

In the case of `Cc1cc(C)c(N(COC(=O)C(C)(C)C)S(=O)(=O)C(F)(F)F)cc1N1CCC(OC2CCC2)C1=O` (stereo not shown) [Compound 8, [[5-[3-(cyclobutyloxy)-2-oxo-1-pyrrolidinyl]-2,4-dimethylphenyl][(trifluoromethyl)sulfonyl]amino]methyl 2,2-dimethylpropanoate], the “Plant response rating, Blackgrass” value in data set [7] (31 g ai/ha) is recorded as 30; in data set [7] (125 g ai/ha), 70; in data set [3] (31 g ai/ha) it was 30; in data set [3] (125 g ai/ha) it was 40. Moreover, the “Plant response rating, Goosegrass” value in data set [8] (31 g ai/ha) came out at 70; in data set [8] (125 g ai/ha), 100. The pest or weed control at 31 g/ha in the data set on kochia (Bassia scoparia) [1] is 0%; in data set [2], 50%; in the data set on kochia (Bassia scoparia) [4] it was 60%; in data set [5] it was 40%. The pest or weed control at 125 g/ha was 100% in the data set on kochia (Bassia scoparia) [1], 90% in [2], 80% in the data set on kochia (Bassia scoparia) [4] and 100% in [5]. The Corn plant response rating (crop injury, 0 = no effect, 100 = complete kill) at 31 g/ha with corn (Zea mays) stood at 30%. Moreover, the Corn plant response rating (crop injury, 0 = no effect, 100 = complete kill) at 125 g/ha with corn (Zea mays) came to 80%. For the same compound, the “Plant response rating, Soybean” value is listed as 60 in the data set on soybean (Glycine max) (31 g ai/ha) and 90 in the data set on soybean (Glycine max) (125 g ai/ha). The pest or weed control at 250 g/ha in data set [6] amounted to 95%.

With `CO/N=C1\CCN(c2cc(NS(=O)(=O)C(F)(F)F)c(C)cc2C)C1=O` [Compound 9, 1,1,1-trifluoro-N-[5-[3-(methoxyimino)-2-oxo-1-pyrrolidinyl]-2,4-dimethylphenyl]methanesulfonamide], the melting point lay within 226 to 229 °C.

Turning to `Cc1cc(C)c(N2CC/C(=N\O)C2=O)cc1NS(=O)(=O)C(F)(F)F` [Compound 10, 1,1,1-trifluoro-N-[5-[3-(hydroxyimino)-2-oxo-1-pyrrolidinyl]-2,4-dimethylphenyl]methanesulfonamide], the melting point lay in the range of 213 to 216 °C.

`C=CCO/N=C1\CCN(c2cc(NS(=O)(=O)C(F)(F)F)c(C)cc2C)C1=O` [Compound 11] displayed a melting point of 184 to 187 °C.

`C#CCO/N=C1\CCN(c2cc(NS(=O)(=O)C(F)(F)F)c(C)cc2C)C1=O` [Compound 13, N-[2,4-dimethyl-5-[2-oxo-3-[(2-propyn-1-yloxy)imino]-1-pyrrolidinyl]phenyl]-1,1,1-trifluoromethanesulfonamide] displayed a melting point of 175 to 178 °C.
